Results published in PubChem BioAssay AID180 (DTP/NCI, 2004).
Several values for one entry are separate records, joined by “and”; a condition that tells them apart may be missing. Equal values may be shown once. Starred links: 1 amine or outer side, 2 acyl side, 3 side chain; linkers in the order of their positions; H or OH if unused. Positions of bridges follow the written chain, without caps; N, C: chain ends. Non-standard residues stand in square brackets, D forms with d. Residues, ends and D or L forms follow the SMILES beside them. Chains are numbered I, II in the order given. Actinocin(9to1) = Cc1c2oc3c(C)ccc(C(=O)[*:1])c3nc-2c(C(=O)[*:2])c(N)c1=O; aThr = C[C@H](O)[C@H](N)C(=O)O; NMeV = CN[C@H](C(=O)O)C(C)C; Sar = CNCC(=O)O

System: BDF1 mice, Adenocarcinoma 755 s.c., tumor weight T/C
Experiment: NCI In Vivo Anticancer Drug Screen. Data for tumor model Adenocarcinoma 755 (subcutaneous) in B6D2F1 (BDF1) mice
Settings: endpoint: mean tumor weight, higher = larger tumour
Experimental: The antitumor activity of compounds was measured in mice bearing transplantable tumors. Survival or tumor size were measured and the results are expressed as the measurement made in the treated group (T) divided by the measurement made in the vehicle treated control group (C). The tumor model used in this assay is Adenocarcinoma 755 (subcutaneous) in B6D2F1 (BDF1) mice

SMILES: CC(=O)Nc1nc(SCc2ccccc2)c2ncn(C3CCCO3)c2n1 (stereo unspecified)
- T/C (dose: 6.2 mg/kg/injection, schedule: Q01DX011 (ip), vehicle: methylcellulose (MC)): 54 % of control
- T/C (dose: 15.0 mg/kg/injection, schedule: Q01DX011 (ip), vehicle: methylcellulose (MC)): 6 % of control
- T/C (dose: 50.0 mg/kg/injection, schedule: Q01DX011 (ip), vehicle: methylcellulose (MC)): 4 % of control

SMILES: Brc1ccc(CSc2ncnc3nc[nH]c23)cc1
- T/C (dose: 43.75 mg/kg/injection, schedule: Q01DX011 (ip), vehicle: methylcellulose (MC)): 70 % of control
- T/C (dose: 87.5 mg/kg/injection, schedule: Q01DX011 (ip), vehicle: methylcellulose (MC)): 28 % of control
- T/C (dose: 175.0 mg/kg/injection, schedule: Q01DX011 (ip), vehicle: methylcellulose (MC)): 10 % of control
- T/C (dose: 350.0 mg/kg/injection, schedule: Q01DX011 (ip), vehicle: methylcellulose (MC)): 1 % of control

SMILES: Cn1c(N)c(N=O)c(=O)n(C)c1=O
- T/C (dose: 175.0 mg/kg/injection, schedule: Q01DX011 (oral), vehicle: other): 99 % of control
- T/C (dose: 250.0 mg/kg/injection, schedule: Q01DX011 (ip), vehicle: carboxymethylcellulose (CMC)): 81 % of control
- T/C (dose: 350.0 mg/kg/injection, schedule: Q01DX011 (ip), vehicle: carboxymethylcellulose (CMC)): 28 % of control
- T/C (dose: 350.0 mg/kg/injection, schedule: Q01DX011 (oral), vehicle: other): 80 % of control
- T/C (dose: 1400.0 mg/kg/injection, schedule: Q01DX011 (oral), vehicle: methylcellulose (MC)): 105 % of control
- T/C (dose: 2000.0 mg/kg/injection, schedule: Q01DX011 (oral), vehicle: other): 74 % of control
- T/C (dose: 2800.0 mg/kg/injection, schedule: Q01DX011 (oral), vehicle: other): 118 % of control

SMILES: O=S=Nc1ccccc1
- T/C (dose: 351.0 mg/kg/injection, schedule: Q01DX011 (ip), vehicle: carboxymethylcellulose (CMC)): 64 % of control

SMILES: Cc1c2oc3c(C)ccc(C(=O)N[C@@H]4C(=O)N[C@H](C(C)C)C(=O)N5CCC[C@H]5C(=O)N(C)CC(=O)N(C)[C@@H](C(C)C)C(=O)O[C@H]4C)c3nc-2c(C(=O)N[C@@H]2C(=O)N[C@H](C(C)C)C(=O)N3CCC[C@H]3C(=O)N(C)CC(=O)N(C)[C@@H](C(C)C)C(=O)O[C@H]2C)c(N)c1=O (I: [aThr][dV]P[Sar][NMeV] / II: [aThr][dV]P[Sar][NMeV]; ester I:1-I:C, II:1-II:C; linker I:N-II:N via Actinocin(9to1))
- T/C (dose: 0.02 mg/kg/injection, schedule: Q01DX011 (ip), vehicle: saline): 2 % of control
- T/C (dose: 0.03 mg/kg/injection, schedule: Q01DX011 (ip), vehicle: carboxymethylcellulose (CMC)): 9 % of control
- T/C (dose: 0.04 mg/kg/injection, schedule: Q01DX011 (ip), vehicle: carboxymethylcellulose (CMC)): 105 % of control
- T/C (dose: 0.08 mg/kg/injection, schedule: Q01DX011 (ip), vehicle: carboxymethylcellulose (CMC)): 39 % of control
- T/C (dose: 12.0 micrograms/kg/injection, schedule: Q01DX011 (ip), vehicle: carboxymethylcellulose (CMC)): 101 % of control
- T/C (dose: 15.0 micrograms/kg/injection, schedule: Q01DX011 (ip), vehicle: carboxymethylcellulose (CMC)): 82 % of control
- T/C (dose: 24.0 micrograms/kg/injection, schedule: Q01DX011 (ip), vehicle: carboxymethylcellulose (CMC)): 26 % of control and 43 % of control
- T/C (dose: 40.0 micrograms/kg/injection, schedule: Q01DX011 (ip), vehicle: carboxymethylcellulose (CMC)): 4 % of control and 13 % of control
- T/C (dose: 48.0 micrograms/kg/injection, schedule: Q01DX011 (ip), vehicle: carboxymethylcellulose (CMC)): 10 % of control and 11 % of control
- T/C (dose: 53.0 micrograms/kg/injection, schedule: Q01DX011 (ip), vehicle: carboxymethylcellulose (CMC)): 3 % of control and 4 % of control
- T/C (dose: 95.0 micrograms/kg/injection, schedule: Q01DX011 (ip), vehicle: carboxymethylcellulose (CMC)): 2 % of control
